In patent US9669028B2, “Substituted 5-(pyrazin-2-yl)-1H-pyrazolo [3, 4-B] pyridine and pyrazolo [3, 4-B] pyridine derivatives as protein kinase inhibitors” (Arrien Pharmaceuticals LLC, priority 2011, dated 2017):

Tests used:
Format in all cases: biochemical
[1] = target: LRRK2 (Homo sapiens (Human), UniProt Q5S007); assay: LRRK2 Kinase Assay; conditions: 10 μM ATP
Protocol: (§1) Briefly, specific kinase/substrate pairs along with required cofactors were prepared in reaction buffer; 20 mM Hepes (pH 7.5), 10 mM MgCl2, 1 mM EGTA, 0.02% Brij35, 0.02 mg/ml BSA, 0.1 mM Na3VO4, 2 mM DTT, 1% DMSO. Compounds were delivered into the reaction, followed ˜20 min later by addition of a mixture of ATP (Sigma) and 33P ATP (PerkinElmer) to a final concentration of 10 μM. […] IC50 values and curve fits were obtained using Prism (GraphPad Software). Kinome tree representations were prepared using Kinome Mapper (http://www.reactionbiology.com/apps/kinome/mapper/Launch Kinome.htm).
For the wild type LRRK the 2×LRRK2/ERM (LRRKtide) mixture was prepared in 50 mM Tris pH 8.5, 0.01% BRIJ-35, 10 mM MgCl2, 1 mM EGTA, 0.02% NaN3. […] After 1 hour Kinase Reaction incubation, 5 μL of Detection Mix was added.

[2] = target: LRRK2 G2019S (Homo sapiens (Human), UniProt Q5S007, G2019S); assay: LRRK2 G2019S Kinase Assay; conditions: 10 μM ATP
Sequence of LRRK2 G2019S (Q5S007 970-2527 G2019S): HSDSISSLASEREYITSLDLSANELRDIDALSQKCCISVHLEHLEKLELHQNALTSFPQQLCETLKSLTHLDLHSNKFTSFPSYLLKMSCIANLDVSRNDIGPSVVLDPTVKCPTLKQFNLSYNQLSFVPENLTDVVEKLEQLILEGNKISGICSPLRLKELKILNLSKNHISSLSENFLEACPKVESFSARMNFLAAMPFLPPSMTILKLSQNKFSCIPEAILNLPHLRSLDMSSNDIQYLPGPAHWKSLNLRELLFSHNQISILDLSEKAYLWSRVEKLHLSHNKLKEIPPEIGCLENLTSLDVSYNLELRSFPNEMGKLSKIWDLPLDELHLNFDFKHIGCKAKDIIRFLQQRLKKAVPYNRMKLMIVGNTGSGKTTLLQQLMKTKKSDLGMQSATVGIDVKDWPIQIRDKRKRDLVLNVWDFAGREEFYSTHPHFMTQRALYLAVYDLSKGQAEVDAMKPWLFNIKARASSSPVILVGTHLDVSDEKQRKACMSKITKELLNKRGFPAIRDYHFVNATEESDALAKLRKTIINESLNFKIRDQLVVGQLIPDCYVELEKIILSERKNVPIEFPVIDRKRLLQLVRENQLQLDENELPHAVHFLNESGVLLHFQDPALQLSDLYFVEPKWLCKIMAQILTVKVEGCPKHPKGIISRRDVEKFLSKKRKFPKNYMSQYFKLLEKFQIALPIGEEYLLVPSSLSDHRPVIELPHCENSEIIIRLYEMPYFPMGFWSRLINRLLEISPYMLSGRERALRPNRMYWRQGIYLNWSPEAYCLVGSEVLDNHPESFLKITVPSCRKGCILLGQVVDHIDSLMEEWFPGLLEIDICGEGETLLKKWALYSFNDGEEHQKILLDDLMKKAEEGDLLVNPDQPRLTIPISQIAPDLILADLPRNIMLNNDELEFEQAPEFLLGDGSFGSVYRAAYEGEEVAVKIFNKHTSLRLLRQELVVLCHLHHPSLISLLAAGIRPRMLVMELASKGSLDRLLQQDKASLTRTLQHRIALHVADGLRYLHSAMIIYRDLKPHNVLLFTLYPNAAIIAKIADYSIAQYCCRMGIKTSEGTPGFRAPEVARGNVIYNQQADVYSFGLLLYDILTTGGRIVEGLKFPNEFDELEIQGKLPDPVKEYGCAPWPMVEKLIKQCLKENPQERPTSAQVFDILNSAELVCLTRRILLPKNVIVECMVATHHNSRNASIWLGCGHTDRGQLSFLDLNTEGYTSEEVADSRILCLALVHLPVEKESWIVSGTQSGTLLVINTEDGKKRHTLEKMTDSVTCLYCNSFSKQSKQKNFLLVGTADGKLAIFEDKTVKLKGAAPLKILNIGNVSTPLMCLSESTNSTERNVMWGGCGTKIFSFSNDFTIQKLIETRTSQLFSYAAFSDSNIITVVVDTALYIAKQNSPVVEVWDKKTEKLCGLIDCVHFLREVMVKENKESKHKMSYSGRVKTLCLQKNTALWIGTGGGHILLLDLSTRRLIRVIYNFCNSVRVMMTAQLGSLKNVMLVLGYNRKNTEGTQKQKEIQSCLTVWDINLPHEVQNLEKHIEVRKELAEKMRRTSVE
Protocol: Procedure: Enzyme was incubated with substrate peptide in reaction buffer in the presence and absence of test compounds or Staurosporine. All additions were done on ice, followed by the addition of ATP mix. Wells were uniformly mixed using an Eppendorff plate shaker and incubated at 30° C. for 20 min, and stopped by the addition of 5 μl of 3% phosphoric acid. Volume was increased to 100 μl by adding 0.8% phosphoric acid which was then transferred to PC filter mats (Millipore), pre-equilibrated with 70% ethanol and water. Plates were washed thrice with 100 μl 0.8% phosphoric acid and dried for an hour at 60° C. 100 μl scintillation fluid was added into each well and reading taken in Perkin Elmer TOPCOUNT beta counter. […] A validation EC50 curve was generated by plotting CPM for each Staurosporine concentration on y-axis against the Log concentration of Staurosporine (nM) on the x-axis followed by a best fit curve through the points.
After 1 hour Kinase Reaction incubation, 5 μL of Detection Mix was added.

[3] = target: DYRK1A (Homo sapiens (Human), UniProt Q13627); assay: In vitro DYRK1A inhibition assay
Protocol: as §1
The 2×DYRK1A/Ser/Thr 18 mixture was prepared in 50 mM HEPES pH 7.5, 0.01% BRIJ-35, 10 mM MgCl2, 1 mM EGTA.

Sequence of LRRK2 (Q5S007 970-2527): as the sequence (Q5S007 970-2527 G2019S) above, with S1050G counted along it

IC50 [1] [nM]	IC50 [2] [nM]	IC50 [3] [nM]	SMILES
> 500	> 500	–	Cc1n[nH]c2ncc(-c3cncnc3NC3CCN(C)CC3)cc12 [Compound 19, 5-(3methyl-1H-pyrazolo[3,4-b]pyridine-5yl)-N-(1-methylpiperidine-4yl)pyrimidin-4-amine]
> 500	> 500	> 500	Cc1n[nH]c2ncc(NC3CCCN(Cc4ccc(F)cc4)C3)cc12 (stereo not shown) [Compound 22, N-(1-(4-fluorobenzyl)piperidine-3-yl)-3-methyl-1H-pyrazolo[3,4-b]pyridine-5-amine]
> 500	> 500	–	Cc1n[nH]c2ncc(NC3CCCN(Cc4ccc(F)c(F)c4)C3)cc12 (stereo not shown) [Compound 26]
> 500	> 500	> 500	Cc1n[nH]c2ncc(NC3CCCN(Cc4ccc(Cl)cc4)C3)cc12 (stereo not shown) [Compound 27, N-(1-(4-Chlorobenzyl)piperidin-3-yl)-3-methyl-1H-pyrazolo[3,4-b]pyridid-5-amine]
> 500	> 500	> 500	Cc1n[nH]c2ncc(NC3CCCN(Cc4ccc(Cl)c(Cl)c4)C3)cc12 (stereo not shown) [Compound 28, N-(1-(3,4-Chlorobenzyl)piperidin-3-yl)-3-methyl-1H-pyrazolo[3,4-b]pyridid-5-amine]
> 500	> 500	> 500	Cc1n[nH]c2ncc(-c3cncc(OCCN4CCN(C)CC4)n3)cc12 [Compound 33, 5-(6-(2-(4-methylpiperazin-1-yl)ethoxy)pyrazin-2-yl)-3-methyl-1H-pyrazolo[3,4-b]pyridine]
> 500	> 500	> 500	Cc1n[nH]c2ncc(-c3cncc(NC(=O)C4CCN(C)CC4)n3)cc12 [Compound 39]
> 1000	> 1000	–	Cc1n[nH]c2ncc(-c3cncc(Cl)n3)cc12 [Compound 42, 5-(6-chloropyrazin-2-yl)-3-methyl-1H-pyrazolo[3,4-b]pyridine]
> 1000	> 1000	–	Cc1n[nH]c2ncc(-c3cnccn3)cc12 [Compound 45, 3-methyl-5-(pyrazin-2-yl)-1H-pyrazolo[3,4-b]pyridine]
> 500	> 500	> 1000	Cc1n[nH]c2ncc(-c3cncc(N4CCCC4=O)n3)cc12 [Compound 48, 1-(6-(3-methyl-1H-pyrazolo[3,4-b]pyridin-5-yl)pyrazin-2-yl)pyrrolidin-2-one]
> 500	> 500	> 1000	Cc1n[nH]c2ncc(-c3cncc(NC4CCN(C)C4)n3)cc12 (stereo not shown) [Compound 51, 6-(3-methyl-1H-pyrazolo[3,4-b]pyridin-5-yl)-N-(1-methylpyrrolidin-3-yl)pyrazin-2-amine]
> 500	> 500	> 1000	Cc1n[nH]c2ncc(-c3cncc(N4CCC(F)(F)C4)n3)cc12 [Compound 56, 5-(6-(3,3-difluoropyrrolidin-1-yl)pyrazin-2-yl)-3-methyl-1H-pyrazolo[3,4-b]pyridine]
< 500	< 500	> 500	Cc1n[nH]c2ncc(-c3cncc(N4CCN(CCO)CC4)n3)cc12 [Compound 59, 2-(4-(6-(3-methyl-1H-pyrazolo[3,4-b]pyridin-5-yl)pyrazin-2-yl)piperazin-1-yl)ethanol]
< 500	< 500	> 1000	Cc1n[nH]c2ncc(-c3cncc(N4CCN(C)CC4)n3)cc12 [Compound 65, 3-methyl-5-(6-(4-methylpiperazin-1-yl)pyrazin-2-yl)-1H-pyrazolo[3,4-b]pyridine]
< 500	< 500	> 1000	Cc1n[nH]c2ncc(-c3cncc(NCCN(C)C)n3)cc12 [Compound 68, N^1,N^1-dimethyl-N2-(6-(3-methyl-1H-pyrazolo[3,4-b]pyridin-5-yl)pyrazin-2-yl)ethane-1,2-diamine]
> 1000	> 1000	–	Cc1n[nH]c2ncc(-c3nccnc3N3CCCC3)cc12 [Compound 74, 3-methyl-5-(3-(pyrrolidin-1-yl)pyrazin-2-yl)-1H-pyrazolo[3,4-b]pyridine]
> 1000	> 1000	–	Cc1n[nH]c2ncc(-c3cccc(S(=O)(=O)N(C)C)c3)cc12 [Compound 111, N, N-dimethyl-3-(3-methyl-1H-pyrazolo[3,4-b]pyridin-5-yl)benzenesulfonamide]

IC50 [1] [nM]	IC50 [2] [nM]	IC50 [3] [nM]	SMILES
> 1000	> 1000	–	CC(=O)Nc1cccc(-c2cnc3[nH]nc(C)c3c2)c1 [Compound 114, N-(3-(3-methyl-1H-pyrazolo[3,4-b]pyridin-5-yl)phenyl)acetamide]
> 1000	> 1000	–	Cn1cc(-c2cnc3[nH]ncc3c2)cn1 [Compound 117, 5-(1-methyl-1H-pyrazol-4-yl)-1H-pyrazolo[3,4-b]pyridine]
> 1000	> 1000	–	CCOC(=O)c1cccc(-c2cnc3[nH]nc(C)c3c2)c1 [Compound 119, ethyl 3-(3-methyl-1H-pyrazolo[3,4-b]pyridin-5-yl)benzoate]
> 1000	> 1000	–	Cc1n[nH]c2ncc(-c3cccc(CN4CCN(C)CC4)c3)cc12 [Compound 123, 3-methyl-5-(3-((4-methylpiperazin-1-yl)methyl)phenyl)-1H-pyrazolo[3,4-b]pyridine]
> 500	> 500	–	CN1CC(Nc2cncc(-c3cnc4[nH]ccc4c3)n2)C1 [Compound 130, N-(1-methylazetidin-3-yl)-6-(1H-pyrrolo[2,3-b]pyridin-5-yl)pyrazin-2-amine]
> 500	> 500	–	O=C1CN(c2cncc(-c3cnc4[nH]ccc4c3)n2)CCN1 [Compound 133, 4-(6-(1H-pyrrolo[2,3-b]pyridin-5-yl)pyrazin-2-yl)piperazin-2-one]
> 500	> 500	–	O=C(c1cncc(-c2cnc3[nH]ccc3c2)n1)N1CCCCC1 [Compound 138, (6-(1H-pyrrolo[2,3-b]pyridin-5-yl)pyrazin-2-yl)(piperidin-1-yl)methanone]
> 1000	> 1000	–	CN1CCN(C(=O)c2cncc(-c3cnc4[nH]ccc4c3)n2)CC1 [Compound 139, (6-(1H-pyrrolo[2,3-b]pyridin-5-yl)pyrazin-2-yl)(4-methylpiperazin-1-yl)methanone]
< 500	< 500	–	CN1CCC(Nc2cncc(-c3cnc4[nH]ccc4c3)n2)CC1 [Compound 140, N-(1-methylpiperidin-4-yl)-6-(1H-pyrrolo[2,3-b]pyridin-5-yl)pyrazin-2-amine]
< 500	< 500	–	CN1CCC(Nc2cncc(-c3cnc4[nH]cc(Cl)c4c3)n2)CC1 [Compound 141, 6-(3-chloro-1H-pyrrolo[2,3-b]pyridin-5-yl)-N-(1-methylpiperidin-4-yl)pyrazin-2-amine]
> 1000	> 1000	–	C=CC(=O)Nc1cccc(-c2cnc3[nH]nc(C)c3c2)c1 [Compound 155, N-(3-(3-methyl-1H-pyrazolo[3,4-b]pyridin-5-yl)phenyl)acrylamide]
> 1000	> 1000	–	Cc1n[nH]c2ncc(-c3cccc(CC#N)c3)cc12 [Compound 158, 2-(3-(3-methyl-1H-pyrazolo[3,4-b]pyridin-5-yl)phenyl)acetonitrile]
> 1000	> 1000	–	Cc1n[nH]c2ncc(-c3ccc(N4CCN(C)CC4)cc3)cc12 [Compound 161, 3-methyl-5-(4-(4-methylpiperazin-1-yl)phenyl)-1H-pyrazolo[3,4-b]pyridine]
> 1000	> 1000	–	Cc1n[nH]c2ncc(Nc3cccc(CN4CCN(CCO)CC4)c3)cc12 [Compound 164, 2-(4-(3-((3-methyl-1H-pyrazolo[3,4-b]pyridin-5-yl)amino)benzyl)piperazin-1-yl)ethanol]
> 1000	> 1000	–	Cc1n[nH]c2ncc(Nc3ccc(CN4CCN(C)CC4)cc3)cc12 [Compound 167, 3-methyl-N-(4-((4-methylpiperazin-1-yl)methyl)phenyl)-1H-pyrazolo[3,4-b]pyridin-5-amine]
> 1000	> 1000	–	Cc1n[nH]c2ncc(Nc3ccc(N4CCN(C)CC4)c(F)c3)cc12 [Compound 170, N-(3-fluoro-4-(4-methylpiperazin-1-yl)phenyl)-3-methyl-1H-pyrazolo[3,4-b]pyridin-5-amine]
> 1000	> 1000	–	Cc1n[nH]c2ncc(Nc3cncc(Cl)n3)cc12 [Compound 171, N-(6-chloropyrazin-2-yl)-3-methyl-1H-pyrazolo[3,4-b]pyridin-5-amine]
